# According to patent US8530465B2, “1, 2-disubstituted amido-anthraquinone derivatives, preparation method and application thereof” (National Defense Medical Center, priority 2010, dated 2013):
# Columns and labels:
# [1] = tested on: hTERT; experiment: Secreted alkaline phosphatase (SEAP) assay, PhTERT-SEAP (H1299); type: cell-based; conditions: Homo sapiens, 24 hours
# Procedure, shortened: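 Stable H1299 clone carrying the −3338 to +1 bp hTERT promoter upstream of SEAP; ~10^4 cells/well treated with varying drug amounts for 24 h at 37° C. Media heat-treated 65° C. 10 min, mixed with diethanolamine/MgCl2/L-homoarginine buffer and 12 mM p-nitrophenyl phosphate final; SEAP activity taken as rate of A405 increase.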
# [2] = tested on: SR; experiment: NCI drug screen, SR; type: cell-based, human; conditions: SR (Leukemia); 1.00E−5 Molar
# Procedure: (§1) In brief, cellular protein levels were determined after 48 hours of drug exposure by sulforhodamine B colorimetry. Through the use of a time 0 cell control, the cell growth can be determined for each cell line thus allowing calculations of the 50% growth inhibitory concentration (GI50), the total growth inhibition (TGI), and the 50% lethal concentration (LC50). Comparison to plates not exposed to drug permits determination of concentration and times of exposure conferring 50% net growth inhibition (GI50), TGI, and 50% cell kill (LC50).
# (§2) The screening system in United State National Cancer Institute (NCI) is consisted of 60 kinds of different human cancer cells, which can be used to assay the growth-inhibiting ability or cell toxicity of a compound against various cancer and tumor at a certain concentration.
# [3] = tested on: HOP-62; experiment: NCI drug screen, HOP-62; type: cell-based, human; conditions: HOP-62 (Non-Small Cell Lung Cancer); 1.00E−5 Molar
# Procedure: as §1, §2
# [4] = tested on: NCI-H226; experiment: NCI drug screen, NCI-H226; type: cell-based, human; conditions: NCI-H226 (Non-Small Cell Lung Cancer); 1.00E−5 Molar
# Procedure: as §1, §2
# [5] = tested on: NCI-H322M; experiment: NCI drug screen, NCI-H322M; type: cell-based, human; conditions: NCI-H322M (Non-Small Cell Lung Cancer); 1.00E−5 Molar
# Procedure: as §1, §2
# [6] = tested on: A549/ATCC; experiment: NCI drug screen, A549/ATCC; type: cell-based, human; conditions: A549/ATCC (Non-Small Cell Lung Cancer); 1.00E−5 Molar
# Procedure: as §1, §2
# [7] = tested on: COLO 205; experiment: NCI drug screen, COLO 205; type: cell-based, human; conditions: COLO 205 (Colon Cancer); 1.00E−5 Molar
# Procedure: as §1, §2
# [8] = tested on: KM12; experiment: NCI drug screen, KM12; type: cell-based, human; conditions: KM12 (Colon Cancer); 1.00E−5 Molar
# Procedure: as §1, §2
# [9] = tested on: U251; experiment: NCI drug screen, U251; type: cell-based, human; conditions: U251 (CNS Cancer); 1.00E−5 Molar
# Procedure: as §1, §2
# [10] = tested on: MALME-3M; experiment: NCI drug screen, MALME-3M; type: cell-based, human; conditions: MALME-3M (Melanoma); 1.00E−5 Molar
# Procedure: as §1, §2
# [11] = tested on: SK-MEL-2; experiment: NCI drug screen, SK-MEL-2; type: cell-based, human; conditions: SK-MEL-2 (Melanoma); 1.00E−5 Molar
# Procedure: as §1, §2
# [12] = tested on: SK-MEL-28; experiment: NCI drug screen, SK-MEL-28; type: cell-based, human; conditions: SK-MEL-28 (Melanoma); 1.00E−5 Molar
# Procedure: as §1, §2
# [13] = tested on: UACC-257; experiment: NCI drug screen, UACC-257; type: cell-based, human; conditions: UACC-257 (Melanoma); 1.00E−5 Molar
# Procedure: as §1, §2
# [14] = tested on: OVCAR-4; experiment: NCI drug screen, OVCAR-4; type: cell-based, human; conditions: OVCAR-4 (Ovarian Cancer); 1.00E−5 Molar
# Procedure: as §1, §2
# [15] = tested on: OVCAR-5; experiment: NCI drug screen, OVCAR-5; type: cell-based, human; conditions: OVCAR-5 (Ovarian Cancer); 1.00E−5 Molar
# Procedure: as §1, §2
# [16] = tested on: SK-OV-3; experiment: NCI drug screen, SK-OV-3; type: cell-based, human; conditions: SK-OV-3 (Ovarian Cancer); 1.00E−5 Molar
# Procedure: as §1, §2
# [17] = tested on: 786-0; experiment: NCI drug screen, 786-0; type: cell-based, human; conditions: 786-0 (Renal Cancer); 1.00E−5 Molar
# Procedure: as §1, §2
# [18] = NCI drug screen, A489; type: cell-based, human; conditions: A489 (Renal Cancer); 1.00E−5 Molar
# Procedure: as §1, §2
# [19] = tested on: ACHN; experiment: NCI drug screen, ACHN; type: cell-based, human; conditions: ACHN (Renal Cancer); 1.00E−5 Molar
# Procedure: as §1, §2
# [20] = tested on: DU145; experiment: NCI drug screen, DU145; type: cell-based, human; conditions: DU145 (Prostate Cancer); 1.00E−5 Molar
# Procedure: as §1, §2
# [21] = tested on: PC-3; experiment: NCI drug screen, PC-3; type: cell-based, human; conditions: PC-3 (Prostate Cancer); 1.00E−5 Molar
# Procedure: as §1, §2
# [22] = tested on: MDA-MB-231/ATCC; experiment: NCI drug screen, MDA-MB-231/ATCC; type: cell-based, human; conditions: MDA-MB-231/ATCC (Breast Cancer); 1.00E−5 Molar
# Procedure: as §1, §2
# [23] = tested on: BT-549; experiment: NCI drug screen, BT-549; type: cell-based, human; conditions: BT-549 (Breast Cancer); 1.00E−5 Molar
# Procedure: as §1, §2
# [24] = tested on: T-47D; experiment: NCI drug screen, T-47D; type: cell-based, human; conditions: T-47D (Breast Cancer); 1.00E−5 Molar
# Procedure: as §1, §2
# [25] = tested on: 60 kinds of different human cancer cells; experiment: NCI in vitro 60-cell Drug Screen, whole panel; type: cell-based
# Procedure: as §1
# From the data analysis it follows that approximately 95% of the actives (potent anticancer drugs) from the 60 cell line screen can be identified. By these criteria, five compounds (each with its certification number, refer to FIG. 4) of the invention were reported that having anticancer activity.
# as §2
smiles,measurement,setting,value
"Cc1ccc(C(=O)Nc2c(NC(=O)CN3CCN(C)CC3)ccc3c2C(=O)c2ccccc2C3=O)cc1 [CC-43, 1-(4-methylbenzamido)-2-[2-(4-methylpiperazino)acetylamino]-anthraquinone]",activity at 1 µM,"[1]; NCI-H1299, Conc. 1 μM, read-out: Relative SEAP activity (%)",77.4 ± 1.5%
same,activity at 10 µM,"[1]; NCI-H1299, Conc. 10 μM, read-out: Relative SEAP activity (%) (converted)",13.4%
same,activity at 100 µM,"[1]; NCI-H1299, Conc. 100 μM, read-out: Relative SEAP activity (%) (converted)",3.15%
same,Growth Percent,[2],−43.70%
same,Growth Percent,[3],75.21%
same,Growth Percent,[4],93.87%
same,Growth Percent,[5],72.60%
same,Growth Percent,[6],83.89%
same,Growth Percent,[7],2.29%
same,Growth Percent,[8],44.05%
same,Growth Percent,[9],22.38%
same,Growth Percent,[10],10.84%
same,Growth Percent,[11],123.64%
same,Growth Percent,[12],−57.56%
same,Growth Percent,[13],−50.95%
same,Growth Percent,[14],57.11%
same,Growth Percent,[15],106.66%
same,Growth Percent,[16],108.91%
same,Growth Percent,[17],11.90%
same,Growth Percent,[18],67.36%
same,Growth Percent,[19],49.87%
same,Growth Percent,[20],82.12%
same,Growth Percent,[21],84.75%
same,Growth Percent,[22],37.00%
same,Growth Percent,[23],91.88%
same,Growth Percent,[24],52.62%
same,GI50,"[25]; Homo sapiens, 60 cell, NCI screen, FIG. 6, cell line not stated, read-out: 50% net growth inhibition (GI50)",130 nM
same,"growth-inhibiting effect against cancer cells, by cancer type","[25]; NCI's screen, 1.00E−5 Molar","could inhibit the cancer cell growth of leukemia, melanoma, and ovarian cancer"
same,"Growth Percent, Mean","[25]; mean over tested cell lines, 1.00E−5 Molar",46.71%
